Results as given in PubChem BioAssay (NCI).
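GI50 marks 50% less growth. Definition used: TGI = concentration required for complete inhibition of growth.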

Experiments:
Assay in all cases: inhibition of tumour cell growth, NCI panel, 384-well format; in the data active = GI50 below about 0.43 µM; inactive = the rest
CAKI-1 renal = test system: CAKI-1 renal
NCI-H226 lung = test system: NCI-H226 lung
NCI-H460 NSCLC = test system: NCI-H460 NSCLC
SF-539 CNS = test system: SF-539 CNS
UO-31 renal = test system: UO-31 renal
SK-OV-3 ovarian = test system: SK-OV-3 ovarian
KM12 colon = test system: KM12 colon
RXF 393 renal = test system: RXF 393 renal
MCF7 breast = test system: MCF7 breast
UACC-257 melanoma = test system: UACC-257 melanoma
NCI-H322M lung = test system: NCI-H322M lung
RPMI-8226 leukemia = test system: RPMI-8226 leukemia
COLO 205 colon = test system: COLO 205 colon
MDA-MB-231 breast = test system: MDA-MB-231 breast
OVCAR-4 ovarian = test system: OVCAR-4 ovarian
SNB-19 CNS = test system: SNB-19 CNS
HS 578T breast = test system: HS 578T breast
HOP-92 NSCLC = test system: HOP-92 NSCLC
NCI-H522 lung = test system: NCI-H522 lung
SW-620 colon = test system: SW-620 colon
IGROV1 ovarian = test system: IGROV1 ovarian
HCT-15 colon = test system: HCT-15 colon
A498 renal = test system: A498 renal
HCT-116 colon = test system: HCT-116 colon
ACHN renal = test system: ACHN renal
HOP-62 NSCLC = test system: HOP-62 NSCLC
DU-145 prostate = test system: DU-145 prostate
U251 glioblastoma = test system: U251 glioblastoma
A549 NSCLC = test system: A549 NSCLC
OVCAR-8 ovarian = test system: OVCAR-8 ovarian
MDA-MB-468 breast = test system: MDA-MB-468 breast
MDA-MB-435 melanoma = test system: MDA-MB-435 melanoma
NCI-H23 lung = test system: NCI-H23 lung
TK-10 renal = test system: TK-10 renal
LOX IMVI melanoma = test system: LOX IMVI melanoma
OVCAR-5 ovarian = test system: OVCAR-5 ovarian
HT29 colon = test system: HT29 colon
SR leukemia = test system: SR leukemia
NCI/ADR-RES ovarian = test system: NCI/ADR-RES ovarian
BT-549 breast = test system: BT-549 breast
HCC-2998 colon = test system: HCC-2998 colon
SN12C renal = test system: SN12C renal
786-0 renal = test system: 786-0 renal
SF-295 CNS = test system: SF-295 CNS
SK-MEL-28 melanoma = test system: SK-MEL-28 melanoma
PC-3 prostate = test system: PC-3 prostate
EKVX NSCLC = test system: EKVX NSCLC
T-47D breast = test system: T-47D breast
MALME-3M melanoma = test system: MALME-3M melanoma
MOLT-4 leukemia = test system: MOLT-4 leukemia
K-562 leukemia = test system: K-562 leukemia
HL-60(TB) leukemia = test system: HL-60(TB) leukemia
OVCAR-3 ovarian = test system: OVCAR-3 ovarian
SK-MEL-5 melanoma = test system: SK-MEL-5 melanoma
UACC-62 melanoma = test system: UACC-62 melanoma
SF-268 CNS = test system: SF-268 CNS
CCRF-CEM leukemia = test system: CCRF-CEM leukemia

CNC(=O)c1ccccc1Sc1ccc2c(/C=C/c3ccccn3)n[nH]c2c1
69 µM: TGI (SF-295 CNS)
92.2 µM: TGI (UACC-257 melanoma)
7.16 µM: TGI (SF-539 CNS)
13.9 µM: TGI (RPMI-8226 leukemia)
0.328 µM: TGI (MOLT-4 leukemia)
31.1 µM: TGI (RXF 393 renal)
42.5 µM: TGI (OVCAR-8 ovarian)
5.88 µM: TGI (MDA-MB-468 breast)
41.7 µM: TGI (LOX IMVI melanoma)
13.8 µM: TGI (NCI-H522 lung)
active: GI50 (SR leukemia) 0.356 µM | GI50 (MOLT-4 leukemia) 0.175 µM
73.7 µM: TGI (NCI-H322M lung)
45 µM: TGI (NCI-H460 NSCLC)
79.7 µM: TGI (SN12C renal)
16.1 µM: TGI (T-47D breast)
7.68 µM: TGI (NCI-H226 lung)
18.4 µM: TGI (NCI/ADR-RES ovarian)
35.7 µM: TGI (HS 578T breast)
inactive: GI50 (CAKI-1 renal) 22 µM | GI50 (NCI-H226 lung) 1.06 µM | GI50 (NCI-H460 NSCLC) 2.59 µM | GI50 (SF-539 CNS) 1.01 µM | GI50 (UO-31 renal) 32.8 µM | GI50 (SK-OV-3 ovarian) 65.7 µM | GI50 (KM12 colon) 1.11 µM | GI50 (RXF 393 renal) 4.61 µM | GI50 (MCF7 breast) 16.2 µM | GI50 (UACC-257 melanoma) 26.7 µM | GI50 (NCI-H322M lung) 20.7 µM | GI50 (RPMI-8226 leukemia) 3.77 µM | GI50 (COLO 205 colon) 2.52 µM | GI50 (MDA-MB-231 breast) 21.7 µM | GI50 (OVCAR-4 ovarian) 19.3 µM | GI50 (SNB-19 CNS) 66 µM | GI50 (HS 578T breast) 2.17 µM | GI50 (HOP-92 NSCLC) 20.3 µM | GI50 (NCI-H522 lung) 1.35 µM | GI50 (SW-620 colon) 46.7 µM | GI50 (IGROV1 ovarian) 36.1 µM | GI50 (HCT-15 colon) 4.68 µM | GI50 (A498 renal) 35.4 µM | GI50 (HCT-116 colon) 4.39 µM | GI50 (ACHN renal) 13.8 µM | GI50 (HOP-62 NSCLC) 4.4 µM | GI50 (DU-145 prostate) 30.1 µM | GI50 (U251 glioblastoma) 19.1 µM | GI50 (A549 NSCLC) 7.86 µM | GI50 (OVCAR-8 ovarian) 14.3 µM | GI50 (MDA-MB-468 breast) 1.92 µM | GI50 (MDA-MB-435 melanoma) > 100 µM | GI50 (NCI-H23 lung) 15.5 µM | GI50 (TK-10 renal) > 100 µM | GI50 (LOX IMVI melanoma) 5.04 µM | GI50 (OVCAR-5 ovarian) > 100 µM | GI50 (HT29 colon) 46.5 µM | GI50 (NCI/ADR-RES ovarian) 5.09 µM | GI50 (BT-549 breast) 1.22 µM | GI50 (HCC-2998 colon) > 100 µM | GI50 (SN12C renal) 4.88 µM | GI50 ([…]-0 renal) 42.1 µM | GI50 (SF-295 CNS) 3.59 µM | GI50 (SK-MEL-28 melanoma) 22.4 µM | GI50 (PC-3 prostate) 20.2 µM | GI50 (EKVX NSCLC) 29.9 µM | GI50 (T-47D breast) 2.57 µM | GI50 (MALME-3M melanoma) 13.6 µM
6.94 µM: TGI (BT-549 breast)
85.9 µM: TGI (MALME-3M melanoma)
0.539 µM: TGI (SR leukemia)
> 100 µM: TGI (CAKI-1 renal) | TGI (UO-31 renal) | TGI (SK-OV-3 ovarian) | TGI (KM12 colon) | TGI (MCF7 breast) | TGI (COLO 205 colon) | TGI (MDA-MB-231 breast) | TGI (OVCAR-4 ovarian) | TGI (SNB-19 CNS) | TGI (HOP-92 NSCLC) | TGI (SW-620 colon) | TGI (IGROV1 ovarian) | TGI (HCT-15 colon) | TGI (A498 renal) | TGI (HCT-116 colon) | TGI (ACHN renal) | TGI (HOP-62 NSCLC) | TGI (DU-145 prostate) | TGI (U251 glioblastoma) | TGI (A549 NSCLC) | TGI (MDA-MB-435 melanoma) | TGI (NCI-H23 lung) | TGI (TK-10 renal) | TGI (OVCAR-5 ovarian) | TGI (HT29 colon) | TGI (HCC-2998 colon) | TGI (786-0 renal) | TGI (SK-MEL-28 melanoma) | TGI (PC-3 prostate) | TGI (EKVX NSCLC)

COc1ccc(/C=C\c2cc(OC)c(OC)c(OC)c2)cc1NC(=O)[C@@H](N)CO
0.103 µM: TGI (HCT-116 colon)
0.0253 µM: TGI (NCI-H226 lung)
0.0297 µM: TGI (MDA-MB-468 breast) | TGI (HCC-2998 colon)
0.036 µM: TGI (NCI-H460 NSCLC)
0.0922 µM: TGI (HCT-15 colon)
active: GI50 (CAKI-1 renal) < 0.01 µM | GI50 (NCI-H226 lung) < 0.01 µM | GI50 (NCI-H460 NSCLC) 0.0173 µM | GI50 (K-562 leukemia) < 0.01 µM | GI50 (SF-539 CNS) < 0.01 µM | GI50 (UO-31 renal) < 0.01 µM | GI50 (SK-OV-3 ovarian) < 0.01 µM | GI50 (RXF 393 renal) < 0.01 µM | GI50 (MCF7 breast) 0.0244 µM | GI50 (UACC-257 melanoma) < 0.01 µM | GI50 (NCI-H322M lung) < 0.01 µM | GI50 (RPMI-8226 leukemia) < 0.01 µM | GI50 (COLO 205 colon) < 0.01 µM | GI50 (MDA-MB-231 breast) < 0.01 µM | GI50 (OVCAR-4 ovarian) 0.0137 µM | GI50 (HL-60(TB) leukemia) < 0.01 µM | GI50 (HS 578T breast) < 0.01 µM | GI50 (NCI-H522 lung) < 0.01 µM | GI50 (SW-620 colon) < 0.01 µM | GI50 (IGROV1 ovarian) < 0.01 µM | GI50 (HCT-15 colon) < 0.01 µM | GI50 (HCT-116 colon) < 0.01 µM | GI50 (ACHN renal) < 0.01 µM | GI50 (HOP-62 NSCLC) < 0.01 µM | GI50 (OVCAR-3 ovarian) < 0.01 µM | GI50 (DU-145 prostate) < 0.01 µM | GI50 (U251 glioblastoma) < 0.01 µM | GI50 (A549 NSCLC) < 0.01 µM | GI50 (OVCAR-8 ovarian) 0.0104 µM | GI50 (MDA-MB-468 breast) 0.0133 µM | GI50 (MDA-MB-435 melanoma) < 0.01 µM | GI50 (NCI-H23 lung) < 0.01 µM | GI50 (SK-MEL-5 melanoma) < 0.01 µM | GI50 (TK-10 renal) < 0.01 µM | GI50 (UACC-62 melanoma) < 0.01 µM | GI50 (LOX IMVI melanoma) 0.0122 µM | GI50 (SR leukemia) < 0.01 µM | GI50 (NCI/ADR-RES ovarian) < 0.01 µM | GI50 (BT-549 breast) < 0.01 µM | GI50 (HCC-2998 colon) < 0.01 µM | GI50 (SN12C renal) < 0.01 µM | GI50 (SF-268 CNS) < 0.01 µM | GI50 ([…]-0 renal) < 0.01 µM | GI50 (SF-295 CNS) < 0.01 µM | GI50 (SK-MEL-28 melanoma) < 0.01 µM | GI50 (CCRF-CEM leukemia) < 0.01 µM | GI50 (PC-3 prostate) < 0.01 µM | GI50 (EKVX NSCLC) < 0.01 µM | GI50 (T-47D breast) < 0.01 µM | GI50 (MALME-3M melanoma) < 0.01 µM | GI50 (MOLT-4 leukemia) < 0.01 µM
12.7 µM: TGI (MCF7 breast)
< 0.01 µM: TGI (RXF 393 renal) | TGI (RPMI-8226 leukemia) | TGI (COLO 205 colon) | TGI (HL-60(TB) leukemia) | TGI (HS 578T breast) | TGI (NCI-H522 lung) | TGI (MDA-MB-435 melanoma) | TGI (SK-MEL-5 melanoma) | TGI (SR leukemia) | TGI (NCI/ADR-RES ovarian) | TGI (SF-295 CNS) | TGI (CCRF-CEM leukemia) | TGI (MOLT-4 leukemia)
0.0359 µM: TGI (OVCAR-8 ovarian)
0.0582 µM: TGI (786-0 renal)
0.0163 µM: TGI (NCI-H23 lung)
35.9 µM: TGI (IGROV1 ovarian)
0.0252 µM: TGI (BT-549 breast)
68.6 µM: TGI (T-47D breast)
0.0803 µM: TGI (LOX IMVI melanoma)
12 µM: TGI (SK-OV-3 ovarian)
0.0123 µM: TGI (K-562 leukemia)
0.0701 µM: TGI (DU-145 prostate)
> 100 µM: TGI (CAKI-1 renal) | TGI (UO-31 renal) | TGI (UACC-257 melanoma) | TGI (NCI-H322M lung) | TGI (MDA-MB-231 breast) | TGI (OVCAR-4 ovarian) | TGI (SW-620 colon) | TGI (A549 NSCLC) | TGI (TK-10 renal) | TGI (UACC-62 melanoma) | TGI (SK-MEL-28 melanoma) | TGI (PC-3 prostate) | TGI (EKVX NSCLC) | TGI (MALME-3M melanoma)
17.9 µM: TGI (U251 glioblastoma)
52.2 µM: TGI (ACHN renal)
11.9 µM: TGI (SN12C renal)
0.0207 µM: TGI (OVCAR-3 ovarian)
0.0277 µM: TGI (SF-539 CNS)
0.196 µM: TGI (HOP-62 NSCLC)
0.0785 µM: TGI (SF-268 CNS)
